From the supplement of paper PMC5908809

Tests used:
[1] = test system: YT (IL-2 2.5 ng/mL); experiment: percent inhibition of viability; higher = more inhibition; conditions: 72 h
[2] = test system: NK-92 (IL-2 2.5 ng/mL); experiment: as above; conditions: 72 h
[3] = test system: normal primary NK cells, pool 1 (3 donors), resting (IL-2 0 ng/mL); experiment: as above; conditions: 72 h
[4] = test system: IMC-1 (IL-2 20 ng/mL); experiment: as above; conditions: 72 h
[5] = test system: normal primary NK cells, pool 1 (3 donors) (IL-2 2.5 ng/mL); experiment: as above; conditions: 72 h
[6] = test system: NK-YS (IL-2 2.5 ng/mL); experiment: as above; conditions: 72 h
[7] = test system: NKL (IL-2 2.5 ng/mL); experiment: as above; conditions: 72 h
[8] = test system: normal primary NK cells, pool 3 (3 donors) (IL-2 2.5 ng/mL); experiment: as above; conditions: 72 h
[9] = test system: KHYG-1 (IL-2 2.5 ng/mL); experiment: as above; conditions: 72 h
[10] = test system: KAI3 (IL-2 2.5 ng/mL); experiment: as above; conditions: 72 h
[11] = test system: SNK-6 (IL-2 2.5 ng/mL); experiment: as above; conditions: 72 h
[12] = test system: normal primary NK cells, pool 2 (3 donors) (IL-2 2.5 ng/mL); experiment: as above; conditions: 72 h
[13] = test system: DERL-7 (IL-2 2.5 ng/mL); experiment: as above; conditions: 72 h
[14] = test system: normal NK cells expanded with K562-aAPC; experiment: as above; conditions: 72 h, IL-2 2.5 ng/mL
Method: (§1)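 Drug sensitivity and resistance testing on K562-aAPC-expanded normal NK cells: 5 concentrations (10-fold steps over a 10,000-fold range), 72 h at 37 °C, viability by CellTiter-Glo normalised to DMSO and benzethonium chloride controls; DSS from the fitted curve.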

[15] = test system: normal NK cells expanded with K562-aAPC; experiment: drug sensitivity score (DSS) (DSS units); higher = more sensitive; extreme values may be limits of the assay; conditions: 72 h; IL-2 2.5 ng/mL
Method: as §1

[16] = test system: YT (IL-2 2.5 ng/mL); experiment: as above; conditions: 72 h
[17] = test system: NK-92 (IL-2 2.5 ng/mL); experiment: as above; conditions: 72 h
[18] = test system: normal primary NK cells, pool 1 (3 donors), resting (IL-2 0 ng/mL); experiment: as above; conditions: 72 h
[19] = test system: IMC-1 (IL-2 20 ng/mL); experiment: as above; conditions: 72 h
[20] = test system: normal primary NK cells, pool 1 (3 donors) (IL-2 2.5 ng/mL); experiment: as above; conditions: 72 h
[21] = test system: NK-YS (IL-2 2.5 ng/mL); experiment: as above; conditions: 72 h
[22] = test system: NKL (IL-2 2.5 ng/mL); experiment: as above; conditions: 72 h
[23] = test system: normal primary NK cells, pool 3 (3 donors) (IL-2 2.5 ng/mL); experiment: as above; conditions: 72 h
[24] = test system: KHYG-1 (IL-2 2.5 ng/mL); experiment: as above; conditions: 72 h
[25] = test system: KAI3 (IL-2 2.5 ng/mL); experiment: as above; conditions: 72 h
[26] = test system: SNK-6 (IL-2 2.5 ng/mL); experiment: as above; conditions: 72 h
[27] = test system: normal primary NK cells, pool 2 (3 donors) (IL-2 2.5 ng/mL); experiment: as above; conditions: 72 h
[28] = test system: DERL-7 (IL-2 2.5 ng/mL); experiment: as above; conditions: 72 h

O=C(Cc1ccc(-c2ccc(OCCN3CCOCC3)cc2)cn1)NCc1ccccc1 [KX2-391] (max concentration tested 10000 nM)
percent inhibition of viability [%]
Conditions | 1 nM | 10 nM | 100 nM | 1000 nM | 10000 nM
[1] | -2.25 | 14.7 | 95.6 | 102 | 95.2
[2] | 2.97 | 44 | 92.2 | 104 | 96.8
[3] | -13.2 | -19.8 | 7.03 | 7.66 | 29.1
[4] | -2.07 | -3.69 | 99.1 | 100 | 100
[5] | -14.5 | -16.4 | 1.64 | 8.22 | 36.6
[6] | -1.95 | 18.5 | 69.3 | 80.8 | 81.6
[7] | -12.7 | 5.97 | 94.5 | 96.4 | 89
[8] | -15.5 | -9.53 | -0.96 | 0.59 | 6.59
[9] | -5.79 | 3.13 | 98.5 | 107 | 98.1
[10] | -3.67 | 25.5 | 55.4 | 76.7 | 70.3
[11] | 27.9 | 54 | 79.7 | 91.6 | 95.2
[12] | -6.2 | -11.1 | -5.76 | 6.08 | 22.6
[13] | -1.42 | 5.02 | 99.3 | 99.9 | 98.9
[14] | -2.89 | -0.99 | 57 | 55.9 | 57.5

Conditions | drug sensitivity score
[15] | 17.9
[16] | 32
[17] | 34.8
[18] | 2.04
[19] | 30
[20] | 3.06
[21] | 25.4
[22] | 30.1
[23] | 0
[24] | 30.7
[25] | 23
[26] | 34.7
[27] | 1.59
[28] | 31.1

CNC(=O)c1cccc(-c2ccc3c(N4CCOC[C@@H]4C)nc(N4CCOC[C@@H]4C)nc3n2)c1 [AZD2014] (max concentration tested 10000 nM)
percent inhibition of viability [%]
Conditions | 1 nM | 10 nM | 100 nM | 1000 nM | 10000 nM
[1] | 10.9 | 6.65 | 18.3 | 60.6 | 78.2
[2] | 4.44 | -1.39 | 29.1 | 57.6 | 86.6
[3] | -7.02 | 8.25 | 24.4 | 20.1 | 45.9
[4] | -8.07 | -10.1 | -19.9 | -44.5 | 8.41
[5] | 5.65 | 6.16 | 19.9 | 34.6 | 35.5
[6] | 7.61 | 7.66 | 23 | 61.5 | 81.5
[7] | 8.6 | 17.6 | 50.9 | 66.7 | 73
[8] | 0.74 | 5.96 | 9.04 | 27.7 | 27.3
[9] | 8.26 | 7.2 | 12.9 | 48.3 | 87.9
[10] | 19.5 | 24.3 | 46.2 | 65.3 | 73.2
[11] | 5.51 | 16.6 | 22.9 | 45 | 60.5
[12] | -6.11 | 7.01 | 7.49 | 28.2 | 29.1
[13] | -2.59 | 6.55 | 37.5 | 74.8 | 87.2
[14] | 1.08 | 8.53 | 26.5 | 39.1 | 53.6

Conditions | drug sensitivity score
[15] | 10.8
[16] | 13.5
[17] | 14.5
[18] | 9.03
[19] | 0
[20] | 8.12
[21] | 14.4
[22] | 20.4
[23] | 5.08
[24] | 11.2
[25] | 21
[26] | 12.5
[27] | 5.3
[28] | 18.6
